Columns and labels:
[1] = system: spontaneously hypertensive rats (SHR); assay: Long-term (4 weeks) consumption in SHR, tail-cuff blood pressure; type: in vivo, rat
Experimental: SHR were feed ad libitum with milk fermented by L. lactis NRRL B-50571, L. lactis NRRL B-50572, captopril (40 mg/kg body weight) or purified water for four weeks. […] Additionally, milk fermented by L. lactis strains modified SHR lipid profiles. Milk fermented by L. lactis NRRL B-50571 and B-50572 was able to reduce plasma low-density lipoprotein (LDL) cholesterol by 55.4±3 mg/dL and 66.3±4 mg/dL, respectively. Thus, milk fermented by L. lactis strains may be a coadjuvant in the reduction of hypertension and hyperlipidemia and may be used as a functional food for better cardiovascular health. […] Subsequently, samples were frozen at −20° C. All fermented milk samples were daily unfrozen and homogenized (for 20 minutes before use. Thirty-two male SHR were obtained from Harlan Laboratories, Inc., (Indianapolis, Ill., USA). The rats were randomly housed in pairs per cage at 21±2° C. with 12 h light/dark cycles, 52±6% relative humidity and with ad libitum intake of a standard diet (TEKLAD, Harlan Laboratories, USA) during the experiment. SHR (27-28 weeks old and 355±24 g weight) were divided into four groups of eight rats (n=8): purified water (negative control), captopril (proven hypotensive drug, positive control) (40 mg/kg body weight (BW), milk fermented by L. lactis NRRL B-50571 and milk fermented by L. lactis NRRL 50572. All SHR had free access to each treatment during three weeks as part of the protocol. Half of the animals were sacrificed at the end of that period. The rest of the SHR only received purified water during one more week before being sacrificed. A research animal protocol was followed according to the guidelines established by the institutional (CIAD, A.C.) Ethics Committee. The lowering blood pressure effect of milk fermented by specific L. lactis strains on SHR was monitored through time. […] Systolic (SBP) and diastolic (DBP) blood pressures were measured five times on each conscious animal before treatments and every week during the experiment. […]

[2] = system: spontaneously hypertensive rats (SHR); assay: Single-dose oral administration in SHR, tail cuff blood pressure and heart rate; type: in vivo, rat; conditions: single oral dose 40 mg/kg BW
Experimental: However, the relationship between ACEI and the in vivo action had to be tested. Therefore, the antihypertensive and heart rate (HR) lowering effect of milk fermented by specific L. lactis in a murine model was investigated. Spontaneously hypertensive male rats (SHR) (271±14 g) were randomized into […]: oral administration of milk fermented by L. lactis NRRL B-50571 or L. lactis NRRL B-50572 at 35 or 50 mg protein/kg of body weight (BW). Two more groups were fed with different solutions as controls: a saline solution was the negative control, meanwhile captopril (40 mg/kg BW), a proven ACE inhibitor was the positive control. Blood pressure and heart rate were monitored by the tail cuff method before treatments and 2, 4, 6 and 24 h post oral administration. […] Thus, milk fermented by specific L. lactis strains present potential benefits in the prevention and treatment of cardiovascular diseases associated to hypertension in humans. Samples of specific L. lactis fermented milk (prepared as previously described) for the single dose bioassay were obtained by centrifugation at 20,000×g for 10) min at 0° C. […] SHR were weaned for eight weeks and their systolic blood pressure monitored during this period. […] Systolic blood pressure (SBP), diastolic blood pressure (DBP) as well as heart rate (HR) were monitored before administration and 2, 4, 6 and 24 h post-administration. […]

Question: `C[C@H](CS)C(=O)N1CCC[C@H]1C(=O)O` [captopril] was tested. Which SBP reduction ([1]; fourth week (only water in last week), fermented milk ad libitum, captopril 40 mg/kg BW) did it give?
Answer: Its SBP reduction is 28.1±1.8 mm Hg.

Question: And the “effect on SBP” value ([1]; second and third week)?
Answer: Its value is “marked lowering-effect”.

Question: And the DBP reduction ([1]; second week, fermented milk ad libitum, captopril 40 mg/kg BW)?
Answer: Its DBP reduction is 38.4±8.5 mm Hg.

Question: What about the “decrease of SBP” value ([2]; 6 h, significantly different from the treatments) of the same molecule?
Answer: Its value is “maximum decrease”.

Question: What about the DBP reduction ([2]; each measurement (2, 4, 6, 24 h)) of the same molecule?
Answer: Its DBP reduction is “maximum DBP reduction”.

Reference: patent US10864246B2, “Method for lowering triglyceride” (Centro De Investigación En Alimentación Y Desarrollo, A.C. …, priority 2011, dated 2020)
